We go through one compound from patent publication US20230087994A1, “TARGETED BIFUNCTIONAL DEGRADERS” (YALE UNIVERSITY, priority 2019, published 2023).

For data set [1], the system named is HepG2 cells. Put plainly: MIF-GN3-mediated endocytosis of fluorescently labeled human MIF by HepG2 cells. As to the method: Human MIF protein was fluorescently labeled with Alexa 488 NHS ester, then incubated with HepG2 cells in the presence of varying levels of MIF-GN3.
Next, inhibitors of various endocytic pathways were utilized to determine if MIF-GN3 mediates MIF endocytosis in a manner consistent with ASGPR (FIG. 132).

The subject of data set [2] is HepG2 cells. Put plainly: Subcellular localization of endocytosed MIF protein in HepG2 cells. In kind it is cell-based, human. The settings on record: 12 hours; FIG. 133. The procedure: In order to investigate the subcellular localization of endocytosed MIF protein, colocalization studies were performed in HepG2 cells. After 12 hours of MIF-GN mediated endocytosis, several punctae displaying MIF-derived fluorescence were present in each cell.

The nature of data set [3]: Pharmacokinetics of MIF-GN3 in male nude mice. It is filed as in vivo. The settings on record: one mpk dose. An excerpt:
The ability of MIF-GN3 to mediate the depletion of injected human MIF from serum in mice was studied. First, the pharmacokinetics of the bifunctional molecule were investigated.

The next data set has as its target T1, mouse MIF (Mus musculus, UniProt P34884).
T1 construct: mediate the depletion of endogenous mouse MIF in vivo; from tissue; host or cells: mouse serum (in vivo)
Put plainly: Depletion of endogenous mouse MIF in vivo. The settings on record: 10 mpk, single dose; FIG. 137. On the set-up: species or system mice. As to the method: (§1) In order to confirm that mice injected with one or ten mpk MIF-GN3 had received the injection, and that the observed stability of MIF concentrations in MIF-GN3 treated mice was not the result of injection error, 200 μg of α-DNP antibody was coinjected with the MIF protein in this experiment. […] An investigation of the ability of MIF-GN3 to mediate the depletion of endogenous mouse MIF in vivo was next undertaken. Mice were treated with either PBS or 10 mpk of MIF-GN3. […] One possible explanation for this finding is that MIF protein may be synthesized rapidly, and any increase in degradation mediated by MIF-GN3 may not be of a large enough magnitude to impact the protein's level in serum.

In the next data set the test system is PC3 cells. Kind of data set: Human prostate cancer PC3 tumor growth in mice. It is filed as in vivo. As to the method: The ability of MIF-GN3 to mediate the depletion of MIF in a therapeutically relevant disease model was investigated. […] An experiment was conducted to determine whether the bifunctional molecule MIF-GN3 can deplete sufficient human MIF from serum to slow PC3 tumor growth. Mice were injected with an aliquot of PC3 cells, and the size of the resultant tumors as well as the levels of human MIF in serum were monitored over five weeks. […] Five weeks after the initial PC3 cell injection, the first of the mice reached maximal tumor size ([…]) and was sacrificed (FIG. 138). […] The decrease in human MIF levels mediated by MIF-GN3 is consistent with a mechanism of action in which MIF-GN3 mediates the depletion and degradation of circulating MIF protein. While the α-MIF antibody would not necessarily be expected to decrease the levels of human MIF, it is possible that the antibody mediates MIF neutralization in a manner which masks its signal as determined by ELISA. Alternatively, the α-MIF antibody may mediate depletion or degradation of huMIF by some endocytic mechanism. Another possible explanation is that the α-MIF antibody decrease serum levels of active human MIF to such an extent at early time points that PC3 cells proliferate much more slowly, and therefore fewer cells are actively secreting human MIF.
Mice were sacrificed when their tumor volumes reached 1000 mm^3. […] At this same time point, less than 25% of the mice in any other arm had survived.

Data set [4] has as its target T2, human MIF (Homo sapiens, UniProt P14174).
T2 sequence (P14174 2-115 limits assumed): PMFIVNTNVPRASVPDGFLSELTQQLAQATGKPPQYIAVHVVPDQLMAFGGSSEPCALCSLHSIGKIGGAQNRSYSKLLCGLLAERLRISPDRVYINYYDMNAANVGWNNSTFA
Put plainly: Depletion of injected recombinant human MIF from serum in mice. It is filed as in vivo. The settings on record: for depletion of human MIF protein from serum: 10 mpk, 30 minutes, FIG. 135. On the set-up: injected into mice. The procedure:
In vivo human MIF depletion experiments were undertaken to determine whether MIF-GN3 can mediate the depletion of injected recombinant human MIF from serum in mice. Mice were injected with five μg of the human MIF protein. In this experiment, one group of mice was also injected with a single 10 mpk dose of MIF-GN3 along with human MIF protein. It was observed that after four hours, the average level of human MIF in serum in the PBS-treated mice was 1.76 ng/mL (FIG. 134). In mice treated with 10 mpk MIF-GN3, however, the concentration of human MIF in serum was 0.68 ng/mL. One day after the initial injection, human MIF levels had reached background levels for both conditions. […] It was hypothesized that, due to the short half-life of human MIF in serum, investigating human MIF levels at earlier time points may be more informative.
Next, an experiment was performed to determine whether MIF-GN3 could enhance MIF clearance at time points earlier than four hours. Mice were coinjected with recombinant human MIF and 10 mpk MIF-GN3 via either i.p. or i.v. routes. For the PBS control arms, human MIF was injected with PBS. It was observed that in the absence of MIF-GN3, there was a spike in huMIF levels in circulation after 30 minutes (FIG. 135). In the presence of MIF-GN3, however, levels of MIF protein remained low at 30 minutes and no spike in its concentration was observed. By two hours, the levels of human MIF in circulation decreased to background levels. […] In a further experiment, whether an inhibitor of the MIF protein (3w) is able to mediate the protein's depletion from serum was determined. A bifunctional molecule that mediates the depletion of α-DNP antibody from serum was also assayed as a negative control. Neither of these molecules was expected to mediate the formation of a ternary complex between human MIF protein and ASGPR.
as §1

Data set [5] deals with T2, human MIF. Put plainly: Depletion of human MIF from cell culture supernatant (sandwich ELISA). In kind it is cell-based. Also on record: host or cells: exogenous protein added to cell culture. The settings on record: for removal of MIF from supernatant: after 48 hours. The procedure: The ability of bifunctional MIF-binding molecules to mediate the depletion of human MIF from cell culture was investigated. In these assays, human MIF was present at a concentration of 100 nM, and a sandwich ELISA assay was utilized to measure the concentration of human MIF remaining in the cell culture supernatant. The closely related bifunctional molecules MIF-GN3, MIF-PEG2-GN3, and MIF-PEG4-GN3 were used, as well as the structurally dissimilar molecule MIF-NVS-PEG3-GN3. […] Based on the ease of its synthesis and its efficacy in this experiment, MIF-GN3 was utilized for further studies. It was next investigated whether the MIF inhibitor 3w mediates MIF depletion from cell culture supernatant. […] When cells were treated with 3w, no depletion of exogenous MIF protein was observed after 24 hours (FIG. 128B).

Each structure is given as a SMILES string.

As for `CC(=O)N[C@H]1[C@H](OCCOCCOCCNC(=O)CCOCC(COCCC(=O)NCCOCCOCCO[C@@H]2O[C@H](CO)[C@H](O)[C@H](O)[C@H]2NC(C)=O)(COCCC(=O)NCCOCCOCCO[C@@H]2O[C@H](CO)[C@H](O)[C@H](O)[C@H]2NC(C)=O)NC(=O)CNC(=O)CCCOc2ccc3nc(-c4cn(-c5ccc(O)c(F)c5)nn4)ccc3c2)O[C@H](CO)[C@H](O)[C@@H]1O` [MIF-GN3], in the data set on HepG2 cells [1] (10 nM MIF protein, 200 nM MIF-GN3, FIG. 131), the “fluorescence relative to cells not treated with bifunctional molecule” value is reported as 4 fold. Also, the “MIF uptake compared to lower concentrations” value in the data set with HepG2 cells [1] (5.00 μM MIF-GN3, 100 nM MIF protein) is given as “slight decrease in MIF uptake”. Moreover, the “MIF-GN3 concentration of maximal intracellular fluorescence” value in the data set on HepG2 cells [1] (highest concentration investigated, FIG. 130) worked out at 1.0 µM. The “colocalization of MIF protein with LAMP2” value in the data set with HepG2 cells [2] is listed as “near-complete colocalization”. Besides, the “overlap of MIF punctae with EEA1” value with HepG2 cells [2] was “did not overlap”. For the same compound, the half-life in serum in data set [3] was 25.8 min. In data set [3], this compound returned a maximum plasma concentration of 586.87 ng/mL. For the same compound, the “time of maximum plasma concentration” value in data set [3] is 15 min. At mouse MIF, the “mouse MIF concentrations in serum” value is reported as “No significant decrease”. The PC3 tumor growth entry is “delay in tumor growth” with PC3 cells (1 mpk) and “not found to decrease tumor growth” in the data set on PC3 cells (10 mpk). Also, the “human MIF protein in serum” value in the data set on PC3 cells (MIF-GN3 at 1 mpk, FIG. 139) was “decreased levels of human MIF protein”. The survival in the data set on PC3 cells (eight weeks after the initial PC3 cell injection, MIF-GN3 at 1 mpk, FIG. 140) amounted to 80%. The “depletion of human MIF protein from serum” value on human MIF [4] (i.p.) and at human MIF [4] (i.v.) was “significant depletion” throughout. The “concentration of human MIF in serum” value at human MIF [4] (four hours, single 10 mpk dose, five μg human MIF (PBS 1.76 ng/mL; difference not significant), FIG. 134) is listed as 0.68 ng/mL; on human MIF [4] (ten mpk, 40 and 60 minutes, FIG. 136), “significant decreses”. Besides, the “human MIF levels in serum” value at human MIF [4] (one mpk, 40 and 60 minute time points, FIG. 136) was “significant decrease”. In addition, the “removal of MIF from supernatant” value came out at 56.0% on human MIF [5] (200 nM) and 67.0% on human MIF [5] (1 μM). Besides, the “depletion of human MIF from cell culture supernatant” value on human MIF [5] (human MIF 100 nM, 24 hours, FIG. 128A) is reported as “effective at mediating the depletion of human MIF”.
